Results as given in patent US20050181376A1, “Antisense modulation of microsomal triglyceride transfer protein expression” (ISIS Pharmaceuticals, Inc., priority 2001, published 2005).
Strand notation (5' to 3'): a small letter for the sugar, then the base; units joined by * are phosphorothioate-linked, units joined directly phosphodiester-linked; [ ] holds rarer units or linkages, { } end groups; capitals alone tell only the bases. e = 2'-O-(2-methoxyethyl) (MOE); [5mC] = 5-methylcytosine; d = 2'-deoxy (DNA)

System: human microsomal triglyceride transfer protein mRNA
Test: Antisense inhibition of human microsomal triglyceride transfer protein mRNA levels, quantitative real-time PCR; note: test concentration or dose not given here
Settings: averages from two experiments

Substance | % INHIB (inhibition of human microsomal triglyceride transfer protein mRNA levels)
144437 (eG*eT*eA*e[5mC]*eT*dG*dG*dT*dT*dT*d[5mC]*d[5mC]*dA*dG*dG*e[5mC]*e[5mC]*eA*eG*e[5mC]; antisense) [compound 144437] | 32%
144433 (eA*eT*eT*eA*eA*dG*dG*d[5mC]*dT*dT*d[5mC]*d[5mC]*dA*dG*dT*e[5mC]*e[5mC]*eT*eT*eG; antisense) [compound 144433] | 0%
CGCTGTGCTCTCAGAGAGCA (antisense e[5mC]*eG*e[5mC]*eT*eG*dT*dG*d[5mC]*dT*d[5mC]*dT*d[5mC]*dA*dG*dA*eG*eA*eG*e[5mC]*eA) [ISIS 144442] | at least 30%
AATATCACAGGTCAGTTTCA (antisense eA*eA*eT*eA*eT*d[5mC]*dA*d[5mC]*dA*dG*dG*dT*d[5mC]*dA*dG*eT*eT*eT*e[5mC]*eA) [ISIS 144440] | at least 30%
CCTGGAGGATAATGCTGCTG (antisense e[5mC]*e[5mC]*eT*eG*eG*dA*dG*dG*dA*dT*dA*dA*dT*dG*d[5mC]*eT*eG*e[5mC]*eT*eG) [ISIS 144422] | at least 30%
144422 (e[5mC]*e[5mC]*eT*eG*eG*dA*dG*dG*dA*dT*dA*dA*dT*dG*d[5mC]*eT*eG*e[5mC]*eT*eG; antisense) [compound 144422] | 37%
TCAACTGCATCCAGTGCCCA (antisense eT*e[5mC]*eA*eA*e[5mC]*dT*dG*d[5mC]*dA*dT*d[5mC]*d[5mC]*dA*dG*dT*eG*e[5mC]*e[5mC]*e[5mC]*eA) [ISIS 144408] | at least 30%
144436 (eG*eA*eG*eG*eA*dG*dT*d[5mC]*d[5mC]*dA*d[5mC]*dT*dG*dT*dG*eA*eT*eG*eT*e[5mC]; antisense) [compound 144436] | 29%
144427 (eT*eA*eA*eG*eG*dT*d[5mC]*dT*dT*d[5mC]*dT*dT*d[5mC]*dA*d[5mC]*e[5mC]*eT*e[5mC]*eA*eT; antisense) [compound 144427] | 8%
144413 (eG*eA*eT*eT*e[5mC]*d[5mC]*dT*d[5mC]*d[5mC]*dA*dT*dA*dG*dT*dA*eA*eG*eG*e[5mC]*e[5mC]; antisense) [compound 144413] | 91%
144410 (e[5mC]*e[5mC]*eA*eG*eT*dT*dG*dT*dG*dT*dG*dA*d[5mC]*d[5mC]*dT*eT*eT*eA*eA*e[5mC]; antisense) [compound 144410] | 38%
144439 (e[5mC]*eG*e[5mC]*eT*eG*dG*dA*dA*dG*dT*dA*d[5mC]*dT*dA*dT*e[5mC]*e[5mC]*eG*eG*e[5mC]; antisense) [compound 144439] | 52%
144408 (eT*e[5mC]*eA*eA*e[5mC]*dT*dG*d[5mC]*dA*dT*d[5mC]*d[5mC]*dA*dG*dT*eG*e[5mC]*e[5mC]*e[5mC]*eA; antisense) [compound 144408] | 30%
144420 (eG*eA*eG*eG*eT*dG*dA*d[5mC]*dA*dG*d[5mC]*dA*dT*d[5mC]*d[5mC]*eA*e[5mC]*e[5mC]*eA*eG; antisense) [compound 144420] | 21%
144426 (eG*eA*eG*e[5mC]*eA*dG*dT*dG*dG*dT*dA*dG*d[5mC]*d[5mC]*dA*eG*eG*eT*eG*eG; antisense) [compound 144426] | 22%
144425 (e[5mC]*e[5mC]*e[5mC]*eT*eT*d[5mC]*dT*d[5mC]*d[5mC]*dT*dG*d[5mC]*dT*dT*d[5mC]*eT*eG*e[5mC]*eA*eT; antisense) [compound 144425] | 22%
144449 (eA*eT*eG*eT*eG*d[5mC]*d[5mC]*dT*dT*d[5mC]*dT*dA*d[5mC]*d[5mC]*dT*eT*eA*eA*eG*eG) [compound 144449] | 35%
144448 (e[5mC]*e[5mC]*e[5mC]*eG*eT*d[5mC]*dA*dT*dG*d[5mC]*dT*dT*dA*dA*dG*eG*eA*eA*eG*eT) [compound 144448] | 49%
144434 (e[5mC]*e[5mC]*e[5mC]*eT*eG*dG*dA*d[5mC]*d[5mC]*dT*d[5mC]*dT*dA*dT*dA*eT*eT*eG*eG*e[5mC]; antisense) [compound 144434] | 0%
144421 (eA*eT*eG*eG*e[5mC]*dT*dT*d[5mC]*dT*dA*dA*dT*dG*dA*dG*eT*e[5mC]*eT*eG*eA; antisense) [compound 144421] | 13%
144415 (eG*eT*eG*eG*eT*dT*d[5mC]*d[5mC]*dA*dG*dA*dG*d[5mC]*dT*dT*eA*eA*e[5mC]*eT*eG; antisense) [compound 144415] | 0%

Substance | % INHIB (inhibition of human microsomal triglyceride transfer protein mRNA levels)
144435 (eG*eA*eT*eA*e[5mC]*d[5mC]*dA*d[5mC]*dA*dA*dG*d[5mC]*dT*dA*dA*eA*e[5mC]*eT*e[5mC]*e[5mC]; antisense) [compound 144435] | 0%
GAGCTTCATATACATTGATC (antisense eG*eA*eG*e[5mC]*eT*dT*d[5mC]*dA*dT*dA*dT*dA*d[5mC]*dA*dT*eT*eG*eA*eT*e[5mC]) [ISIS 144447] | at least 30%
CCCGTCATGCTTAAGGAAGT (antisense e[5mC]*e[5mC]*e[5mC]*eG*eT*d[5mC]*dA*dT*dG*d[5mC]*dT*dT*dA*dA*dG*eG*eA*eA*eG*eT) [ISIS 144448] | at least 30%
144444 (eG*eA*eT*eG*eA*dT*dT*d[5mC]*dA*dA*dA*dA*dT*dG*dA*e[5mC]*eG*e[5mC]*eT*eG; antisense) [compound 144444] | 32%
CGCTGGAAGTACTATCCGGC (antisense e[5mC]*eG*e[5mC]*eT*eG*dG*dA*dA*dG*dT*dA*d[5mC]*dT*dA*dT*e[5mC]*e[5mC]*eG*eG*e[5mC]) [ISIS 144439] | at least 30%
144432 (eT*eA*e[5mC]*e[5mC]*eG*dT*dG*dA*dA*dG*dA*d[5mC]*d[5mC]*dA*dG*e[5mC]*e[5mC]*eT*eT*e[5mC]; antisense) [compound 144432] | 0%
CAGTGCCCAGCTAGGAGTCA (antisense e[5mC]*eA*eG*eT*eG*d[5mC]*d[5mC]*d[5mC]*dA*dG*d[5mC]*dT*dA*dG*dG*eA*eG*eT*e[5mC]*eA) [ISIS 144407] | at least 30%
ATGTGCCTTCTACCTTAAGG (antisense eA*eT*eG*eT*eG*d[5mC]*d[5mC]*dT*dT*d[5mC]*dT*dA*d[5mC]*d[5mC]*dT*eT*eA*eA*eG*eG) [ISIS 144449] | at least 30%
GCGGTAGCCCACGCTGTCTT (antisense eG*e[5mC]*eG*eG*eT*dA*dG*d[5mC]*d[5mC]*d[5mC]*dA*d[5mC]*dG*d[5mC]*dT*eG*eT*e[5mC]*eT*eT) [ISIS 144412] | at least 30%
144431 (e[5mC]*eG*eA*eG*eT*dA*dG*dA*dG*dA*dA*dT*dG*dT*d[5mC]*eT*eA*eG*eG*e[5mC]; antisense) [compound 144431] | 26%
GTAGCATACTGCATATACCC (antisense eG*eT*eA*eG*e[5mC]*dA*dT*dA*d[5mC]*dT*dG*d[5mC]*dA*dT*dA*eT*eA*e[5mC]*e[5mC]*e[5mC]) [ISIS 144443] | at least 30%
144428 (eG*e[5mC]*eA*eG*e[5mC]*dT*dG*d[5mC]*dA*dG*d[5mC]*dA*dG*dT*dG*e[5mC]*eG*e[5mC]*eA*e[5mC]; antisense) [compound 144428] | 19%
144419 (eT*eG*eG*eT*eG*dG*dA*d[5mC]*d[5mC]*dG*d[5mC]*d[5mC]*dA*dG*dA*eG*e[5mC]*eT*e[5mC]*e[5mC]; antisense) [compound 144419] | 0%
144441 (e[5mC]*eA*eT*eG*e[5mC]*d[5mC]*dA*d[5mC]*dA*dT*dT*dG*dT*dG*dT*e[5mC]*e[5mC]*e[5mC]*eT*eT; antisense) [compound 144441] | 60%
CATGCCACATTGTGTCCCTT (antisense e[5mC]*eA*eT*eG*e[5mC]*d[5mC]*dA*d[5mC]*dA*dT*dT*dG*dT*dG*dT*e[5mC]*e[5mC]*e[5mC]*eT*eT) [ISIS 144441] | at least 30%
TCATATTGACCAGCAATCCT (antisense eT*e[5mC]*eA*eT*eA*dT*dT*dG*dA*d[5mC]*d[5mC]*dA*dG*d[5mC]*dA*eA*eT*e[5mC]*e[5mC]*eT) [ISIS 144409] | at least 30%
144429 (e[5mC]*eT*eT*eG*eA*d[5mC]*dG*dT*d[5mC]*d[5mC]*dA*dT*dG*dT*dA*eG*eG*eA*eT*eG; antisense) [compound 144429] | 0%
AGTGTCCCAGTGATGATCAT (antisense eA*eG*eT*eG*eT*d[5mC]*d[5mC]*d[5mC]*dA*dG*dT*dG*dA*dT*dG*eA*eT*e[5mC]*eA*eT) [ISIS 144423] | at least 30%
144423 (eA*eG*eT*eG*eT*d[5mC]*d[5mC]*d[5mC]*dA*dG*dT*dG*dA*dT*dG*eA*eT*e[5mC]*eA*eT; antisense) [compound 144423] | 41%
144417 (eG*e[5mC]*eT*eG*e[5mC]*dA*dG*d[5mC]*d[5mC]*dT*dG*d[5mC]*dT*dT*dT*e[5mC]*e[5mC]*eA*eG*eA; antisense) [compound 144417] | 9%
144418 (eA*e[5mC]*eA*eG*eT*dG*dG*d[5mC]*dT*d[5mC]*dT*dG*dG*dA*dA*eG*eA*e[5mC]*e[5mC]*eT; antisense) [compound 144418] | 0%
